Patent publication US20090253709A1 (NATIONAL DEFENSE MEDICAL CENTER, priority 2008, published 2009)

Legend:
[1] = MTT assay in BJ1 cells; format: cell-based; details: human, hTERT-BJ1-PTERT(3.4)-SEAP cells, BJ1, read-out: MTT (Inhibition μM ± SD); for viability at 48 h, 1 µM: compound concentration 1 μM; for viability at 48 h, 10 µM: compound concentration 10 μM; for viability at 48 h, 100 µM: compound concentration 100 μM
Protocol: (§1) A total of 2×10^3 […] cells were seeded in the 96-well cell culture plate, and incubated with DMEM (GIBCO®)/glucose mixture and Medium 199 (GIBCO®)/10% FBS/1 mM sodium pyruvate (GIBCO®)/4 mM L-glutamine (GIBCO®) mixture at a ratio of 4:1 at 37° C. for 24 hours. […] After 48 hours of drug treatment, the cultured medium were collected for performing the analysis of SEAP activity. The cells were washed with 1×PBS once immediately, and the MTT assay was performed to compare the compounds with the relative toxicity or the influence to the proliferation and activity. Mitochondria is the place for cellular respiration, and there are many reductive reactions catalyzed by dehydrogenases. MTT is a water-soluble yellow compound, and the […] will be formed after reduction. This crystal can be dissolved in the organic solvent, and has high absorbance at the wavelength of 570 nm. The higher cellular activity or more cell numbers, the more generated crystal violets. Therefore, the cellular activity and cell number can be obtained by the MTT assay. MTT solution was prepared by dissolving MTT powder in PBS solution to achieve 5 mg/ml, filtrated and stored at 4° C. Lysis buffer contained 20% (w/v) of SDS in 50% of N,N-dimethylformamide (DMF, Riedel-deHaën). After the cells were incubated in the 96-well culture plate, the original medium was discarded, 100 μl of the fresh serum-free medium per well and 25 μl of MTT solution per well were added in respectively, and the cells were further incubated in the CO2 incubator at 37° C. for 4 hours. Then, 100 μl of lysis buffer per well was added in and incubated overnight in the CO2 incubator at 37° C. The absorbance at 570 nm was determined by the ELISA reader.

[2] = MTT assay in H1299 cells; format: cell-based; details: human, H1299 cells (H1299/PhTERT-driven SEAP reporter system), H1299, read-out: MTT (Inhibition μM ± SD); for viability at 24 h, 1 µM: compound concentration 1 μM; for viability at 24 h, 10 µM: compound concentration 10 μM; for viability at 24 h, 100 µM: compound concentration 100 μM
Protocol: as §1, with “H1299 is a non-small cell lung cancer cell line with telomerase activity. The cell extract of H1299 cell lines can be used for selecting the telomerase activity inhibitors in vitro and the telomerase activity-inhibited substances in vivo. H1299 cell line was incubated with RPMI 1640 medium supplemented with 10% of fetal bovine serum (FBS). A total” for “A total”, “ELISA reader. The selection of telomerase inhibitors of the anthraquinone compounds provided in the present invention was performed by the […]-driven SEAP system. SEAP is the communication gene in this drug selection model. The SEAP inhibition was shown as follows. […] Subsequently, the linear slope of absorbance to the measuring time was calculated, and the variance of absorbance at 405 nm per minute was represented and compared with the SEAP-producing result of drug-untreated H1299 cells. In addition, the influence of the cell-treated drug solution to the cellular proliferation and the drug toxicity to the cells were considered, and the cellular growth was evaluated by the MTT assay. The drug-treated cells were analyzed by the SEAP assay and the data analysis of MTT assay at the same time. Both results were compared so as to delete the influence of cell number or the activity to SEAP, and the dose-dependent phenomenon could be anticipated in the range of drug concentration designed by the laboratory. […] Since the chemically-synthetic drugs have colors thereon, the SEAP value of drug-treatment without cells was also determined to be the background value which was deducted while treating with the drugs. The candidate drug for inhibiting telomerase on the hTERT gene expression level was evaluated and anticipated.” for “ELISA reader.”

Row | Structure (SMILES) | viability at 48 h, 1 µM [1] | viability at 48 h, 10 µM [1] | viability at 48 h, 100 µM [1] | viability at 24 h, 1 µM [2] | viability at 24 h, 10 µM [2] | viability at 24 h, 100 µM [2]
1 | O=C(CCCl)Nc1ccc2c(c1)C(=O)c1cc(NC(=O)CCCl)ccc1C2=O [Compound 15, 2,7-Bis(3-chloropropionamido)anthraquinone] | 77 ± 2% | 65 ± 1% | 39 ± 1% | 77 ± 13% | 44 ± 15% | 29 ± 11%
2 | CCNCCC(=O)Nc1ccc2c(c1)C(=O)c1cc(NC(=O)CCNCC)ccc1C2=O [Compound 22, 2,7-Bis[3-(ethylamino)propionamido]anthraquinone] | 82 ± 2% | 73 ± 3% | 42 ± 1% | 86 ± 10% | 59 ± 3% | 34 ± 7%
3 | CC(C)NCC(=O)Nc1ccc2c(c1)C(=O)c1cc(NC(=O)CNC(C)C)ccc1C2=O [Compound 13, 2,7-Bis[2-(isopropylamino)acetamido]anthraquinone] | 89 ± 1% | 41 ± 2% | 39 ± 1% | 78 ± 10% | 26 ± 15% | 6 ± 11%
4 | O=C(CN1CCCCC1)Nc1ccc2c(c1)C(=O)c1cc(NC(=O)CN3CCCCC3)ccc1C2=O [Compound 7, 2,7-Bis[2-(piperidino)acetamido]anthraquinone] | 89 ± 1% | 78 ± 3% | 22 ± 2% | 50 ± 16% | 37 ± 15% | 35 ± 11%
5 | CCN(CC)CC(=O)Nc1ccc2c(c1)C(=O)c1cc(NC(=O)CN(CC)CC)ccc1C2=O [Compound 4, 2,7-Bis[2-(diethylamino)acetamido]anthraquinone] | 116 ± 4% | 67 ± 2% | 50 ± 1% | 101 ± 8% | 47 ± 7% | 25 ± 3%
6 | O=C1c2ccc([N+](=O)[O-])cc2C(=O)c2cc([N+](=O)[O-])ccc21 [Compound 1, 2,7-dinitroanthraquinone] | 91 ± 2% | 91 ± 2% | 86 ± 3% | 97 ± 15% | 95 ± 8% | 69 ± 10%
7 | CCCC(=O)Nc1ccc2c(c1)C(=O)c1cc(NC(=O)CCC)ccc1C2=O [Compound 28, 2,7-Bis(butyramido)anthraquinone] | 84 ± 2% | 51 ± 8% | 50 ± 6% | 93 ± 14% | 59 ± 13% | 40 ± 15%
8 | O=C(CN1CCCC1)Nc1ccc2c(c1)C(=O)c1cc(NC(=O)CN3CCCC3)ccc1C2=O [Compound 6, 2,7-Bis[2-(pyrrolidino)acetamido]anthraquinone] | 99 ± 2% | 60 ± 2% | 39 ± 1% | 99 ± 9% | 52 ± 13% | 23 ± 14%
9 | CC(=O)Nc1ccc2c(c1)C(=O)c1cc(NC(C)=O)ccc1C2=O [Compound 26, 2,7-Bis(acetamido)anthraquinone] | 106 ± 1% | 91 ± 2% | 91 ± 2% | 117 ± 15% | 83 ± 13% | 55 ± 11%
